Experiments:
Human IDO = molecular target: T1, Human IDO (Homo sapiens, UniProt P14902); test: IDO enzyme assay; format: biochemical; conditions: enzyme activity remaining at different inhibitor concentrations
T1 construct: purchased enzolifesciences ALX-201-333-C050
Description: The assays were performed at room temperature as described as literature reported with minor revision. […] In each well of 96 well-plate, 10 μL of Human IDO (0.05 mg/mL in KHPO4, 50 mM, PH 6.5) was added into 39 μL buffers (KHPO4, 50 mM, PH 6.5) and 1 μL inhibitor buffer in DMSO (2000, 600, 200, 60, 20, 6, 2, 0.6, 0.2 μM). Then, 50 μL the substrate buffer (4 mM L-tryptophan, 40 mM ascorbate, 20 μM methylene blue, 0.2 mg/mL catalase) was mixed into each well and incubated at 37° C. for 2 hours. Then, 10 μL of 6.1N trichloroacetic acid was mixed into each well and incubated at 52° C. for 30 min to hydrolyze N-formylkynurenine produced by IDO to kynurenine. The reaction mixture was incubated with 100 μL of 0.02 g/mL p-(dimethylamino)benzaldehyde in acetic acid at room temperature for 10 minutes. […] L-Kynurenine used as the standard, was prepared in a series of concentrations (1000, 500, 200, 100, 50, 20, 10 μM). The percent inhibition at individual concentrations was determined and the average values of duplicates were obtained. The data was processed using nonlinear regression to generate IC50 values (Prism Graphpad).

[1] = molecular target: T2, IDO in IFN-γ induced HeLa cells (Homo sapiens, UniProt P14902); test: IDO Hela cells assay (kynurenine formation); format: cell-based; conditions: for IFN-γ induced IDO activity in HeLa cell lines inhibited by IDO inhibitors: FIG. 2
T2 construct: native IDO in HeLa cells; endogenous in cells; host or cells: HeLa cells stimulated with human IFN-γ
Description: Hela cells assay was carried out according to the reference (Takikawa, O., et al. (1988). “Mechanism of interferon-gamma action. Characterization of indoleamine 2,3-dioxygenase in cultured human cells induced by interferon-gamma and evaluation of the enzyme-mediated tryptophan degradation in its anticellular activity.” J Biol Chem 263(4):2041-2048; Yue, E. W., et al. (2009). “Discovery of potent competitive inhibitors of indoleamine 2,3-dioxygenase with in vivo pharmacodynamic activity and efficacy in a mouse melanoma model.” J Med Chem 52(23): 7364-7367) with minor modification. HeLa cells were routinely maintained in Earle's Minimum Essential Medium (EMEM) (ATCC 30-2003) and 10% fetal bovine serum. Cells were kept at 37° C. in a humidified incubator supplied with 5% CO2. The assay was performed as follows: HeLa cells were seeded in a 96 well culture plate at a density of 5×10^3 per well in 100 μL culture media. After grown overnight (16 h), human IFN-γ (50 ng/mL final concentration) and serial dilutions of compounds in 100 μL culture medium per well were added into cells. After an additional 48 hours of incubation, 140 μL of the supernatant per well was transferred to a new 96 well plate. Ten microliters of 6.1 N trichloroacetic acid were mixed into each well and incubated at 50° C. for 30 min to hydrolyze N-formylkynurenine produced by IDO to kynurenine. The reaction mixture was then centrifuged for 10 min at 2500 rpm to remove sediments. One hundred microliters of the supernatant per well were transferred to another 96 well plate and mixed with 100 μL of 2% (w/v) p-dimethylaminobenzaldehyde in acetic acid. The yellow color derived from kynurenine was measured at 492 nm using a SPECTRAmax 250 microplate reader. L-Kynurenine, used as the standard, was prepared in a series of concentrations (200, 100, 50, […], 12.5, 6.3, 3.2, 1.6 μM) in 100 μL HeLa cell culture media and analyzed in the same procedure. The percent inhibition at individual concentrations was determined and the average values of duplicates were obtained. The data was processed using nonlinear regression to generate IC50 values (Prism Graphpad).

[2] = in vivo; cited from earlier work
[3] = system: IFN-γ stimulated HeLa cells; test: Hela cell uptake of radioligands; format: cell-based, human
Description: HeLa cells were seeded in a 24 well culture plate at a density of 2×10^4 per well in 400 μL culture media w/FBS. After grown overnight (16 h), human IFN-γ (25 ng/well, 50 ng/mL final concentration) in 100 μL DMEM w/FBS were added into cells. The cells were rinsed with phosphate-buffered saline (PBS), and 500 μL of Earle's Minimum Essential Medium (EMEM) (ATCC 30-2003) and 10% fetal bovine serum was added to the culture wells. […] At each given time point, the cell supernatants were discard and wash the cells with PBS (0.5 mL) 3 times, the cells were subsequently lysed with 150 μL of trypsin-EDTA in each well and incubated for 5 min at 37° C., then collect the cell digestion solution and add another 150 μL of PBS into each well to collect the cells. All measurements were performed with a γ-counter (Wizard; PerkinElmer).
HeLa, PANCO2,HCT116 and 4T1 cells were selected and those cells were then cultured in the absence or presence of IFN-γ as described followed by Western Blotting to confirm IDO expression.

Hela tumor xenografts = test: MicroPET imaging of Hela tumor xenografts; format: in vivo, mice; conditions: for tracer accumulation in tumor: PET
Description: Female athymic C57BL/6 nude mice (4-6 weeks old) were ordered from Charles River Laboratories (Stone Ridge, N.Y., U.S.A.) and housed in a temperature and humidity controlled room. After 7 to 14 days of acclimatization, a total of 5×10^6 Hela cells were inoculated subcutaneously in 200 μL serum-free medium into the right flank of hind leg. Once tumors reach an appropriate size (3-4 mm in diameter) the mice were randomized into 5 groups (4/group). Then the mice in every group were randomized into two subgroups (rHu IFN-γ treatment or no rHu IFN-γ treatment). All the rHu IFN-γ treatment mice were injected i.p. of 1.5×10^5 U rHu IFN-γ/mouse/day. 24 h later, group one of mice were anesthetized by gas inhalation (2% vol/vol isoflurane in oxygen), then mice were euthanized and tumor tissues were dissected for further IDO western blotting and IHC in vitro. The same operation can be repeated at 48 h, 72 h, 96 h and 120 h points.
In order to evaluate the in vivo imaging performance of [^18F]IDO49 to IDO tumors, microPET imaging was performed on nude mice bearing Hela tumor xenografts both rHu IFN-γ treatment and none rHu IFN-γ treatment using the Inveon small-animal PET/CT scanner (Siemens). Anesthesia was induced with 4-5% isoflurane and maintained with 1-3% isofluorane delivered with a mixed air/oxygen through a closed nose cone throughout the PET imaging session. Mice bearing Hela tumor xenografts with rHu IFN-γ treatment were injected with 3.70-7.40 MBq (100-200 μCi) of [^18F]IDO49 in 200 μL of saline, and the baseline control mice with none rHu IFN-γ treatment was injected with the same radiotracer. PET data were collected for 90 min following radioligand administration and reconstructed into 38 dynamic frames of increasing length (6×10, 6×20, 4×30, 9×60, 2×180, 8×300, and 3×600 s). For a comparative study, [^11C]AMT PET imaging scan was also performed on Hela tumor mice at 60 min after intravenous injection of [^11C]AMT PET (3.7 MBq). The images were reconstructed and the regions of interest (ROIs) were drawn over the tumor and muscle, PET images were converted to percent injected dose per gram (%ID/g of tissue) for evaluation of tumor specificity. Image analysis was performed using the Inevon Research Workplace software.

[4] = Lipophilicity determination (shake-flask, n-octanol/PBS pH 7.4); format: physicochemical; conditions: n-octanol/buffer pH 7.4, shake-flask
Description: [^18F]IDO49 (2-30 kBq in 30 μL of water) was added to a two-layer system of n-octanol (500 μL) and 0.1M phosphate buffered saline (PBS) pH 7.4 (500 μL) in an eppendorf vial. The vessel was vortexed for 3 min and then centrifuged at 10000 rpm for 2 min. An aliquot of each layer (100 μL) was assessed for radioactivity in a wiper counter. The partition coefficient (logD7.4) was calculated as the decimal logarithm of the ratio between the counted radioactivity in the n-octanol layer and the counted radioactivity in the aqueous layer. logD7.4=(Count of n-octanol sample−Count of background)/(Count of PBS sample−Count of background). CLogP (calculated LogP) values were determined using CHEMBIODRAW ULTRA 12.0 software (Cambridge soft. Perkin-Elmer, Waltham, Mass., USA).
LogD (n-octanol/buffer pH 7.4 partition coefficient) of [^18F]IDO49 was measured using the shake-flask method and the calculated LogP (cLogP, n-octanol/water partition coefficient) was determined using CHEMBIODRAW software.

[5] = molecular target: T3, IDO in IFN-γ stimulated HeLa cells (Homo sapiens, UniProt P14902); test: Competitive cell-binding assay; format: cell-based; conditions: blocking with INCB024360 and NLG919, FIG. 8
T3 construct: native IDO in HeLa cells; endogenous in cells; host or cells: HeLa cells stimulated with human IFN-γ
Description: All measurements were performed with a γ-counter (Wizard; PerkinElmer). The specificities of radioligands were determined as percentage.

[6] = IFN-γ treatment Hela tumor mice

T2 sequence (P14902 whole entry): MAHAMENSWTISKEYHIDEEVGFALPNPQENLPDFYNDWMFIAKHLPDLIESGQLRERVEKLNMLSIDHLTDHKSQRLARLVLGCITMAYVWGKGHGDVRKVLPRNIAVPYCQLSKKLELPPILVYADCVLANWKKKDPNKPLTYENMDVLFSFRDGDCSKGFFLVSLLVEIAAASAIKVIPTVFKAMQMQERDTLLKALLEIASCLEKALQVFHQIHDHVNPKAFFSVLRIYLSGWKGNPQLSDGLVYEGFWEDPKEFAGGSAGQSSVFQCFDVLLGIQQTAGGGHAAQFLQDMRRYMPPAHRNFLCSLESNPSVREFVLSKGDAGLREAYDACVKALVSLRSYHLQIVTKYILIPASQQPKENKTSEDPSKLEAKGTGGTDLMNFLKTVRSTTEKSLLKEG
T1 sequence (P14902 whole entry): as above
T3 sequence (P14902 whole entry): as above

With `Nc1nonc1C(=NO)Nc1ccc(F)c(Cl)c1` [IDO5L, 4-amino-N-(3-chloro-4-fluorophenyl)-N′-hydroxy-1,2,5-oxadiazole-3-carboximidamide, reference compound] the “affinity of human IDO for compound” value (Human IDO) was “higher affinity”, the “potency in HeLa cell-based assays compared with enzyme assays” value [1] was “slightly more potent” and the “IFN-γ induced IDO activity in HeLa cell lines inhibited by IDO inhibitors” value [1] was “inhibited”.

With `ON=C(Nc1ccc(F)c(Cl)c1)c1nonc1NCCF` [IDO49] the “affinity of human IDO for compound” value (Human IDO) was “higher affinity”, the “potency in HeLa cell-based assays compared with enzyme assays” value [1] was “slightly more potent” and the “IFN-γ induced IDO activity in HeLa cell lines inhibited by IDO inhibitors” value [1] was “inhibited”.

For `NS(=O)(=O)NCCNc1nonc1C(=NO)Nc1ccc(F)c(Br)c1` [INCB024360], the “clearance t1/2” value [2] is given as under 30 min.

For `Cn1cc(C[C@H](N)C(=O)O)c2ccccc21` [L-1-MT], the “inhibition of IDO activity (cell uptake of [18F]IDO5L)” value ([3]; Hela cells, 120 mins, FIG. 7B) was “strong inhibition”.

For `C[C@](N)(Cc1c[nH]c2ccccc12)C(=O)O` [[^11C]AMT, α-[^11C] methyl-L-tryptophan, reference compound], the “tracer accumulation in tumor” value (Hela tumor xenografts; [6]) was “significant tracer accumulation”.

With `Nc1nonc1C(=NO)Nc1ccc([18F])c(Cl)c1` [[^18F]IDO5L, [^18F] 4-amino-N-(3-chloro-4-fluorophenyl)-N′-hydroxy-1,2,5-oxadiazole-3-carboximidamide, reference compound] the logD7.4 [4] was 2.13±0.11 and the “uptake in IFN-γ stimulated HeLa cells compared with other cell lines” value ([3]; all time points, PANCO2, HCT116, 4T1 as comparison) was “remarkably greater”.

With `ON=C(Nc1ccc(F)c(Cl)c1)c1nonc1NCC[18F]` [[^18F]IDO49] the logD7.4 [4] was 1.37±0.02, the “retention in IDO expression Hela cell line” value ([3]; IFN-γ stimulation, different time points) was “retained at favorable levels” and the “specific binding to IDO in vitro” value [5] was “high specific binding”. The “radioactive uptake in the kidney” value (Hela tumor xenografts; 60 min dynamic scan) was “high”, the “tumor to muscle (T/M) relative uptake ratio, peak” value (Hela tumor xenografts; 60 min post-injection, IFN-γ treatment Hela tumor mice) was 2.29±0.05 and the “tracer accumulation in tumor” value (Hela tumor xenografts; [6]) was “selectively accumulated”. The “average SUV of the tumor, IFN-γ treatment vs none treatment” value (Hela tumor xenografts; summed images of dynamic microPET scans) was “higher than none treatment”.

Source: patent US20190185439A1, “RADIOFLUORINATED CARBOXIMIDAMIDES AS IDO TARGETING PET TRACER FOR CANCER IMAGING” (H. LEE MOFFITT CANCER CENTER & RESEARCH INSTITUTE, INC., priority 2016, published 2019)
